Values of other authors in patent publication US7070816B2, “Methods for treating prostatic intraepithelial neoplasia with herbal compositions” (New Chapter, Inc., priority 2003, dated 2006).

Key:
[1] = target: T1, COX-2 (Homo sapiens, UniProt P35354)
T1 sequence (P35354 18-604): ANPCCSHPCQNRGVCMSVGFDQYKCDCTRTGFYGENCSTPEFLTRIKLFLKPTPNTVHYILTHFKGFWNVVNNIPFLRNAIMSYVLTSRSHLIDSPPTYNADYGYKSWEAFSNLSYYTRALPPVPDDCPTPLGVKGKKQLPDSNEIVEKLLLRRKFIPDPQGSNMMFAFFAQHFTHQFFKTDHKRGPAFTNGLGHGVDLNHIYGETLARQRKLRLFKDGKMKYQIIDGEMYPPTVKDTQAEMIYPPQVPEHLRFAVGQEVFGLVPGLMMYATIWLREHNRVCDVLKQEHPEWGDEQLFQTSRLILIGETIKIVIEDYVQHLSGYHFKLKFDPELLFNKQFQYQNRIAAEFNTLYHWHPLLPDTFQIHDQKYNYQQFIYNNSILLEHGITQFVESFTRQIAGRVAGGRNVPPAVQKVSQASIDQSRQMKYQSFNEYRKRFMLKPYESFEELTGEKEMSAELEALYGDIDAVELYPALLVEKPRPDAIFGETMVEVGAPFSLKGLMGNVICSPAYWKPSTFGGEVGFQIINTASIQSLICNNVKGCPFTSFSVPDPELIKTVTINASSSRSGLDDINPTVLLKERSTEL

[2] = target: COX-1 (Homo sapiens, UniProt P23219)
Chain of COX-1 (P23219 24-599): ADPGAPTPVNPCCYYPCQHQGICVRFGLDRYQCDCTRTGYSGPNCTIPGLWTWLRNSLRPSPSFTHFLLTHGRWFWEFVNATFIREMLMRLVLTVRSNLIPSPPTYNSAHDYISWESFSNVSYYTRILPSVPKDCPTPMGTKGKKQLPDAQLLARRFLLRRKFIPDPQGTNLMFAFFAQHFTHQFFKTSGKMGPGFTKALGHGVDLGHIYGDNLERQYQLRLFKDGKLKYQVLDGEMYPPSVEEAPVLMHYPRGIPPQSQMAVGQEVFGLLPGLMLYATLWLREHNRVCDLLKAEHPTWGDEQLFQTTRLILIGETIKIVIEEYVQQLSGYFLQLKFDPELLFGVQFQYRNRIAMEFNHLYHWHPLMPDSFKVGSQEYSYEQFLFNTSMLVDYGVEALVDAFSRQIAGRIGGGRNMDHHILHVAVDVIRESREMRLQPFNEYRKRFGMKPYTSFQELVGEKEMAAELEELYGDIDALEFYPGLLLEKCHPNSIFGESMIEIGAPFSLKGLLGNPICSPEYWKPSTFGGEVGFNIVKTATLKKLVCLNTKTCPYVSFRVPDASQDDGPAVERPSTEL

[3] = target: T2, 5-lipoxygenase (Homo sapiens, UniProt P09917)
T2 sequence (P09917 1-674): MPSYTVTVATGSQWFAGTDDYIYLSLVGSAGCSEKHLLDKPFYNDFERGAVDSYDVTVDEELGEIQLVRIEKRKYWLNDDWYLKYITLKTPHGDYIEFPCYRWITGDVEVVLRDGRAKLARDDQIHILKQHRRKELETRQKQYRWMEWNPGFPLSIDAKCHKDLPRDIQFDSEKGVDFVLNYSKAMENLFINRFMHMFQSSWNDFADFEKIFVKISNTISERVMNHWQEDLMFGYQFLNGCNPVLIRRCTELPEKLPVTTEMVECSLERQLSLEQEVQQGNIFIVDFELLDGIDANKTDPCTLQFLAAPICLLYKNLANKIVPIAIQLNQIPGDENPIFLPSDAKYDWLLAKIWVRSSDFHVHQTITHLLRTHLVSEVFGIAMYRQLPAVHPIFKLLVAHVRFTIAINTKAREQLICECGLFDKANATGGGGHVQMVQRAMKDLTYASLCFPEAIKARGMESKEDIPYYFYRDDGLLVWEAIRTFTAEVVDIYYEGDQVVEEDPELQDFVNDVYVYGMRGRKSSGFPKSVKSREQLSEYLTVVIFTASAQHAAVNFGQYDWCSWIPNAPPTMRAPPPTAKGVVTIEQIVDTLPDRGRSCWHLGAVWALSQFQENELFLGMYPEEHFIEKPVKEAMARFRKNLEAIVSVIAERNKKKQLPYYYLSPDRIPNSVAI

[4] = system: cyclooxygenase

Compound: Oc1cc(O)c2c(c1)O[C@H](c1ccc(O)c(O)c1)[C@@H](O)C2 [(+)-catechin]
- COX-2 inhibition [1]: COX-1 and COX-2 inhibitors
- COX-1 inhibition [2]: COX-1 and COX-2 inhibitors

Compound: COc1ccc2cc3[n+](cc2c1OC)CCc1cc2c(cc1-3)OCO2 [Berberine]
- COX-2 inhibition [1]: inhibit COX-2
- COX-1 inhibition [2]: without inhibiting COX-1 activity

Compound: C=CCc1ccc(O)c(OC)c1 [Eugenol]
- 5-lipoxygenase inhibition [3]: 5-lipoxygenase inhibitor

Compound: C[C@H]1[C@H](C)CC[C@]2(C(=O)O)CC[C@]3(C)C(=CC[C@@H]4[C@@]5(C)CC[C@H](O)C(C)(C)[C@@H]5CC[C@]43C)[C@H]12 [Ursolic acid]
- COX-2 inhibition [1]: significant COX-2 inhibitory effect

Compound: O=C(O)c1ccccc1O [salicylic acid]
- COX-2 inhibition [1]: COX-2 inhibitor

Compound: gingerols
- cyclooxygenase inhibition [4]: inhibit cyclooxygenase

Compound: shogaols
- cyclooxygenase inhibition [4]: inhibit cyclooxygenase
